In general, Solubility refers to the concentration that dissolves in the medium under given conditions. In general, kinact refers to the rate constant of inactivation at saturating inhibitor. As a reminder, the half-life is the time needed for the level to fall by half in the phase considered. Low values mean fast loss, high ones slow loss.

The nature of series [1]: Aqueous solubility at pH 2 and pH 7. The format is physicochemical.
Another series deals with BTK (Homo sapiens, UniProt Q06187). Nature of the series: BTK covalent inhibition kinetics (KI, kinact, kinact/KI). The settings on record: for Ki / kinact: average of 2 independent determinations (± SD). The format is biochemical. The method, then: The development of the structure-activity relationship was conducted by characterizing the non-covalent affinity of each inhibitor for BTK (KI) and the first order rate constant for irreversible covalent bond formation (kinact). The second order rate constant kinact/KI ratio is used to assess the covalent inhibitor potency because it is independent of incubation time and substrate concentrations (Copeland, R. A. Evaluation of Enzyme Inhibitors in Drug Discovery: a Guide for Medicinal Chemists and Pharmacologists; 2nd ed.; Wiley: Hoboken, N.J., 2013).
Chain of BTK (Q06187 whole entry): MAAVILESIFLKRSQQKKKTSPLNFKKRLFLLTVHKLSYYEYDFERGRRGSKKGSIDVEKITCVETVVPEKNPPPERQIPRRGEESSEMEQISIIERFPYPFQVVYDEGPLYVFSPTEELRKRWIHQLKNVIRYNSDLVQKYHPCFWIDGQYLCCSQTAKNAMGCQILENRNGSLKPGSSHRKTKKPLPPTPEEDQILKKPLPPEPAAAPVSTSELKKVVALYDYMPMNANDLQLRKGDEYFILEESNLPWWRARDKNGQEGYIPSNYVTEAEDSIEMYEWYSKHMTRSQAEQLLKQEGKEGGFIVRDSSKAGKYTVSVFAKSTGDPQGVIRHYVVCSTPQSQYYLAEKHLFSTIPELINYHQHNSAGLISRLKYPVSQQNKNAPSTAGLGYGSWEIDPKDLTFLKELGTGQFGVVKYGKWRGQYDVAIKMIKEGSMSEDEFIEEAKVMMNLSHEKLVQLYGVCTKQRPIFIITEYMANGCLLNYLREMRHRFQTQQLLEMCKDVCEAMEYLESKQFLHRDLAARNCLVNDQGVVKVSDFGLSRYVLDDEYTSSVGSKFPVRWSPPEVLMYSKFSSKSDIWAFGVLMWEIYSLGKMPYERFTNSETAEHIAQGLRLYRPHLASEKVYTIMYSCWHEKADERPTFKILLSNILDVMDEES

Series [2] can be described thus: Human liver microsomes T1/2. The format is in vitro ADME. The settings on record: for half-life: human, liver microsomes. Background: Liver microsomes are a subcellular fraction often used to study metabolism.
Setting [3] is: aqueous medium, aqueous buffer, Table 4, pH 7, read-out: Solubility pH 7.
Setting [4] is: aqueous medium, simulated gastric fluid, Table 4, pH 2, read-out: Solubility pH 2.
[5] abbreviates: aqueous medium, simulated gastric fluid, Table 5, pH 2, read-out: Solubility pH 2.

In brackets after ≈: the same amount, converted by molar mass. Read-outs that look alike come from different tables or passages of the source.

For the molecule `C=CC(=O)N1CCCC(NC(=O)c2sc3nccc4c3c2NC(=O)N4c2ccc(Oc3ccccc3)nc2)C1` (stereo not shown) [D], the Solubility in series [1] (setting [3]) was found to be 4 µM (≈ 2.16 µg/mL). In series [1] (setting [4]), the Solubility is 18 µM (≈ 9.73 µg/mL). At BTK (Table 4), the Ki stood at 354 ± 29 nM and the kinact was 0.000278 s⁻¹. For the same molecule, on BTK (Table 4, read-out: kinact/KI), the kinact/KI amounted to 786 ± 63 M⁻¹ s⁻¹. In series [2] (Table 4), the half-life stood at 6 min.

On to `C=CC(=O)N1CCCC(NC(=O)c2sc3nccc4c3c2NC(=O)N4c2cnc(Oc3ccccc3)cc2C)C1` (stereo not shown) [Compound F], for which, in series [1] (setting [3]), the Solubility was 7 µM (≈ 3.88 µg/mL). In addition, the Solubility in series [1] (setting [4]) is 15 µM (≈ 8.32 µg/mL). Moreover, at BTK (Table 4), the Ki is 27.6 nM and the inactivation rate constant (kinact) worked out at 0.000352 s⁻¹. The kinact/KI at BTK (Table 4, read-out: kinact/KI) stood at 13000 ± 1700 M⁻¹ s⁻¹. In series [2] (Table 4), this molecule displayed a half-life of 5 min.

For the molecule `C=CC(=O)N1CCCC(NC(=O)c2sc3nccc4c3c2NC(=O)N4c2cnc(OC3CCC3)cc2C)C1` (stereo not shown) [H], the Solubility in series [1] (setting [3]) came to 4 µM (≈ 2.13 µg/mL). The Solubility in series [1] (setting [4]) is 10 µM (≈ 5.33 µg/mL). On BTK (Table 4), the Ki amounted to 64 ± 14 nM and the kinact was 0.000316 s⁻¹. For the same molecule, the kinact/KI on BTK (Table 4, read-out: kinact/KI) was 5000 ± 560 M⁻¹ s⁻¹. In series [2] (Table 4), this molecule registered a half-life of less than 4 min.

With `C=CC(=O)N1CCCC(NC(=O)c2sc3nccc4c3c2NC(=O)N4c2ccc(Oc3ccccc3)cc2)C1` (stereo not shown) [Compound B], the Solubility in series [1] (setting [3]) and in series [1] (setting [4]) was less than 4 µM each time. Besides, the Ki on BTK (Table 4) was found to be 32 ± 20 nM. For the same molecule, the inactivation rate constant (kinact) on BTK (Table 4) was found to be 0.00039 ± 0.00011 s⁻¹. The kinact/KI on BTK (Table 4, read-out: kinact/KI) was found to be 13800 ± 5200 M⁻¹ s⁻¹; on BTK (text b354) it was 13800 M⁻¹ s⁻¹. In series [2] (Table 4), the half-life was less than 4 min.

With `C=CC(=O)N1CCCC(NC(=O)c2sc3nccc4c3c2NC(=O)N4c2ccc(Oc3ccccc3)cn2)C1` (stereo not shown) [C], the Solubility in series [1] (setting [3]) was determined as 9 µM (≈ 4.87 µg/mL). Also, the Solubility in series [1] (setting [4]) is 10 µM (≈ 5.41 µg/mL). Moreover, on BTK (Table 4), the Ki is 456 ± 7 nM and the inactivation rate constant (kinact) came out at 0.000303 s⁻¹. In addition, the kinact/KI at BTK (Table 4, read-out: kinact/KI) was 664 ± 44 M⁻¹ s⁻¹. This molecule also returned a half-life in series [2] (Table 4) of less than 4 min.

With `C=CC(=O)N1CCCC(NC(=O)c2sc3nccc4c3c2NC(=O)N4c2cnc(OC3CCCC3)cc2C)C1` (stereo not shown) [Compound G], the Solubility in series [1] (setting [3]) is less than 4 µM. In addition, the Solubility in series [1] (setting [4]) was 15 µM (≈ 8.2 µg/mL). At BTK (Table 4), the Ki came out at 22.2 ± 3.3 nM and the inactivation rate constant (kinact) worked out at 0.000307 s⁻¹. On BTK (Table 4, read-out: kinact/KI), the kinact/KI stood at 13800 ± 430 M⁻¹ s⁻¹. This molecule yielded a half-life in series [2] (Table 4) of less than 4 min.

Turning to `C=CC(=O)NCCNC(=O)c1sc2nccc3c2c1NC(=O)N3c1cnc(CC(C)C)cc1C` [L], the Solubility in series [1] (Table 5, pH 7, read-out: Solubility pH 7) came to 220 µM (≈ 105 µg/mL). In addition, the Solubility in series [1] (setting [5]) is more than 400 µM. On BTK (Table 5), the Ki stood at 2430 nM and the inactivation rate constant (kinact) came to 0.000317 s⁻¹. Further, at BTK (Table 5, read-out: kinact/KI), the kinact/KI amounted to 131 ± 2 M⁻¹ s⁻¹. Besides, in series [2] (Table 5), the “Human liver microsomes T1/2” value was determined as 27 min.

Consider `C=CC(=O)N1CCC(NC(=O)c2sc3nccc4c3c2NC(=O)N4c2cnc(CC(C)C)cc2C)C1` (stereo not shown) [K], for which the Solubility in series [1] (aqueous medium, aqueous buffer, Table 5, pH 7, read-out: Solubility pH 7) stood at 172 µM (≈ 86.8 µg/mL). For the same molecule, the Solubility in series [1] (setting [5]) is more than 400 µM. Moreover, on BTK (Table 5), the Ki came to 2550 nM and the maximal inactivation rate constant (kinact) turned out to be 0.000255 s⁻¹. In addition, the kinact/KI at BTK (Table 5, read-out: kinact/KI) came out at 98.5 ± 12 M⁻¹ s⁻¹. The same molecule registered a half-life in series [2] (Table 5) of 53 min.

(Values after US20250163076A1, “SYNTHESIS OF BRUTON'S TYROSINE KINASE INHIBITORS” (JANSSEN PHARMACEUTICA NV, priority 2022, published 2025).)
